ChEMBL document CHEMBL1147799, “An integrated in silico 3D model-driven discovery of a novel, potent, and selective amidosulfonamide 5-HT1A agonist (PRX-00023) for the treatment of anxiety and depression” (J Med Chem, 2006)
pEC50, pKi: −log10 of the molar value.

Tests used:
[1] = target: 5-hydroxytryptamine receptor 2B (Homo sapiens, UniProt P41595); assay: Binding affinity to 5HT2B receptor by radioligand binding assay
[2] = target: Sodium-dependent serotonin transporter (Homo sapiens, UniProt P31645); assay: Binding affinity to 5HT transporter by radioligand binding assay
[3] = target: T1, 5-hydroxytryptamine receptor 1A (Homo sapiens, UniProt P08908); assay: Displacement of [3H]8-OH-DPAT from human 5HT1A receptor in HEK293 cells
T1 sequence (P08908 whole entry): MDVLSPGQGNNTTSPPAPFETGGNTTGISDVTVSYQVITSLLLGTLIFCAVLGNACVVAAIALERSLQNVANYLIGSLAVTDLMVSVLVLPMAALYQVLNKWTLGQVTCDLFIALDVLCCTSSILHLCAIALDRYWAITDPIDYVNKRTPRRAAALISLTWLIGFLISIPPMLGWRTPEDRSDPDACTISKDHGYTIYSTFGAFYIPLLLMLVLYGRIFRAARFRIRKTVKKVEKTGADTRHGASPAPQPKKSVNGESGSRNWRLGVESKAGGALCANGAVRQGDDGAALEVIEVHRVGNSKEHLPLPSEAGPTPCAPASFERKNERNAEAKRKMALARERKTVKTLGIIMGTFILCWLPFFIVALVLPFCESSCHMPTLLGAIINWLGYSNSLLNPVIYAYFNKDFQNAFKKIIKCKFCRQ

[4] = target: T2, Adrenergic receptor alpha-1 (Rattus norvegicus, UniProt P15823+P23944+P43140); assay: Displacement of [3H]prazosin from adrenergic alpha-1 receptor in rat cerebral cortex cells; format: cell-based
T2 sequence (P15823 whole entry): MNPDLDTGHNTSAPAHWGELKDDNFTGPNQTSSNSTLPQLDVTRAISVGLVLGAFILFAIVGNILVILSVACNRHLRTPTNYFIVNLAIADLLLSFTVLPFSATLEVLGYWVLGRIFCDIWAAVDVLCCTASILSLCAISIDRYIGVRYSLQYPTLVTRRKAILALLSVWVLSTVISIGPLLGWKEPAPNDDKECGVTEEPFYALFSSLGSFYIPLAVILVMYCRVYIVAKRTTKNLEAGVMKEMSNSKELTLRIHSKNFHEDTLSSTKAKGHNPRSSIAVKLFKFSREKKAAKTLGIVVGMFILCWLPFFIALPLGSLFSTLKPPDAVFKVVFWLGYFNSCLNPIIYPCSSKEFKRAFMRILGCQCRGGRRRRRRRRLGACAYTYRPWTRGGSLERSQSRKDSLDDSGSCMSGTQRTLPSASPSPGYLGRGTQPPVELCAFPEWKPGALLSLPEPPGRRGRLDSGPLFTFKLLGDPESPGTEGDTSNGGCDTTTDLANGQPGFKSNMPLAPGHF
T2 sequence (P23944 whole entry): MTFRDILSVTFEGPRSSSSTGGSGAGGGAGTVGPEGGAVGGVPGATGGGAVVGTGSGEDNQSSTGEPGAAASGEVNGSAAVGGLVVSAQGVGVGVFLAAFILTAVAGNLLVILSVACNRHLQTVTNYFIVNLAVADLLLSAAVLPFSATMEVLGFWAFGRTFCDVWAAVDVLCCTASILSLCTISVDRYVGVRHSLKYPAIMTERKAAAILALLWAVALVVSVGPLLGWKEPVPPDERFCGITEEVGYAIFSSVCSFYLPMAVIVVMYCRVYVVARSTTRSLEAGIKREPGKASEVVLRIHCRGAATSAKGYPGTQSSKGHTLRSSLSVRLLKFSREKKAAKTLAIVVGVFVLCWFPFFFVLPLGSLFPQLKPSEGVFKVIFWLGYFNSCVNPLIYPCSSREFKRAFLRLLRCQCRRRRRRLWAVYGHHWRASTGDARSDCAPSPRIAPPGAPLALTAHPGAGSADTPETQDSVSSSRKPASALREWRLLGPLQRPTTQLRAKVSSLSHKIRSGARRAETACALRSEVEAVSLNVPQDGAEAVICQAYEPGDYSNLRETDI
T2 sequence (P43140 whole entry): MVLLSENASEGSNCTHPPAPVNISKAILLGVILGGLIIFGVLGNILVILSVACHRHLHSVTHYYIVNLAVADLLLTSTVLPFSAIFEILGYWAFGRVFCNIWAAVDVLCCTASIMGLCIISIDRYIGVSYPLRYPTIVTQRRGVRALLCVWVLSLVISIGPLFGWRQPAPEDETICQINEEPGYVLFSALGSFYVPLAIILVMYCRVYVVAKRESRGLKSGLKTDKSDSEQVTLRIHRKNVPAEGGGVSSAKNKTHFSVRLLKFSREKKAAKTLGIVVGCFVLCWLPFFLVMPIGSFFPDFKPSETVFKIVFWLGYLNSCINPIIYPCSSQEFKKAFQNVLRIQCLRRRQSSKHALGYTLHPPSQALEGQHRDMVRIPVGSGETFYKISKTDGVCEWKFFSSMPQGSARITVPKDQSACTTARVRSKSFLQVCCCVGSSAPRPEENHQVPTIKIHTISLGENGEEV

[5] = target: T3, 5-hydroxytryptamine receptor 1A (Homo sapiens) (UniProt P08908); assay: Activity against 5HT1A receptor relative to 5-HT by Gi-[35S]GTP-gamma-S binding assay; format: functional
T3 sequence (whole entry): T1 sequence (P08908 whole entry)

[6] = target: T1, 5-hydroxytryptamine receptor 1A; assay: Activity against 5HT1A receptor by Gi-[35S]GTP-gamma-S binding assay; format: functional
[7] = Half life in Sprague-Dawley rat at 3 mg/kg, po; format: ADME, organism-based; parameters: dose 3 mg/kg, route oral; details: in vivo
[8] = Oral bioavailability in Sprague-Dawley rat at 3 mg/kg, po and 1 mg/kg, iv; format: ADME, organism-based; details: in vivo
[9] = target: Alpha-2A adrenergic receptor (Rattus norvegicus, UniProt P22909); assay: Displacement of [3H]RX 821002 from Adrenergic alpha-2a receptor in rat cerebral cortex cells; format: cell-based
[10] = target: 5-hydroxytryptamine receptor 7 (Homo sapiens, UniProt P34969)
Description: Binding affinity to 5HT7 receptor by radioligand binding assay

[11] = target: 5-hydroxytryptamine receptor 2A (Homo sapiens, UniProt P28223)
Sequence of 5-hydroxytryptamine receptor 2A (P28223 whole entry): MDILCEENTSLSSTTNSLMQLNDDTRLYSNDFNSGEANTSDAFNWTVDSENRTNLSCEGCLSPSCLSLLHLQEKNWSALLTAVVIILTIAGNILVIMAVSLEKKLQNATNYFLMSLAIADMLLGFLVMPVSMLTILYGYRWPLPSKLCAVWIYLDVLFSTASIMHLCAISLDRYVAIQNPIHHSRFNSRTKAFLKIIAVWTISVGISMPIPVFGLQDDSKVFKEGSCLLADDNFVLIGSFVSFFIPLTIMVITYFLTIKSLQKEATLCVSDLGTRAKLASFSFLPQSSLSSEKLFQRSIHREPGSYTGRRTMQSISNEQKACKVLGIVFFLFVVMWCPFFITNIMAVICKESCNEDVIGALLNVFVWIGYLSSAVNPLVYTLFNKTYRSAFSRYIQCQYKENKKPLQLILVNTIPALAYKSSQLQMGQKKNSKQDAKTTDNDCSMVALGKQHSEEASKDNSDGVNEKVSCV
Description: Binding affinity to 5HT2A receptor by radioligand binding assay

Sequence of Sodium-dependent serotonin transporter (P31645 whole entry): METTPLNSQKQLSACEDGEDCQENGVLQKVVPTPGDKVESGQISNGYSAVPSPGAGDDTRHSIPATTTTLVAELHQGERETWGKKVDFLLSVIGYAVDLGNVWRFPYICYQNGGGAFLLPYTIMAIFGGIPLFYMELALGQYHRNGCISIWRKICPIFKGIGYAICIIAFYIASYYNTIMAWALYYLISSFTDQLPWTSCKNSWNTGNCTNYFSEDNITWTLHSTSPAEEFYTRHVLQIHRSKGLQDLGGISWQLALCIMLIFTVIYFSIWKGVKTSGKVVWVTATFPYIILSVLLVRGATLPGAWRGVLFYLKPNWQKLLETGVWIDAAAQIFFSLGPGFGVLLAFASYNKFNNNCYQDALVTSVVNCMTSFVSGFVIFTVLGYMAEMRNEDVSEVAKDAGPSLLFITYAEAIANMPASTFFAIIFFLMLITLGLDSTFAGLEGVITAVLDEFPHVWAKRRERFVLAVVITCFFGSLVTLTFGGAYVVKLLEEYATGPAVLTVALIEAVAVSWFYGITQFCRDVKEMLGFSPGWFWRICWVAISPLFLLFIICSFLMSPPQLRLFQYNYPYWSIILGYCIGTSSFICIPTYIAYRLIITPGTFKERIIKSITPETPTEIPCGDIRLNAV
Sequence of 5-hydroxytryptamine receptor 2B (P41595 whole entry): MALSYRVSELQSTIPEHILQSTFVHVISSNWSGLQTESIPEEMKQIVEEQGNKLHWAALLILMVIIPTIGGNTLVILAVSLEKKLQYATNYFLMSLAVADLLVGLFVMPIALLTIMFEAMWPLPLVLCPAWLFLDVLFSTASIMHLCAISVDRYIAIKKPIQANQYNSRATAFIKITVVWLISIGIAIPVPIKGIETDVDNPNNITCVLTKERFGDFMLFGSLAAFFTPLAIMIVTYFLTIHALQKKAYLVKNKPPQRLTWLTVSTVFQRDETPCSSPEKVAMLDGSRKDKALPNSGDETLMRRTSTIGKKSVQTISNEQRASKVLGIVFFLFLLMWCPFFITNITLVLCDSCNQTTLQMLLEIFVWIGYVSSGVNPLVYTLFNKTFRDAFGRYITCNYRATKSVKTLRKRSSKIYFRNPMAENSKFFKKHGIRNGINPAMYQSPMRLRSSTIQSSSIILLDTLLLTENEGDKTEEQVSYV
Sequence of 5-hydroxytryptamine receptor 7 (P34969 whole entry): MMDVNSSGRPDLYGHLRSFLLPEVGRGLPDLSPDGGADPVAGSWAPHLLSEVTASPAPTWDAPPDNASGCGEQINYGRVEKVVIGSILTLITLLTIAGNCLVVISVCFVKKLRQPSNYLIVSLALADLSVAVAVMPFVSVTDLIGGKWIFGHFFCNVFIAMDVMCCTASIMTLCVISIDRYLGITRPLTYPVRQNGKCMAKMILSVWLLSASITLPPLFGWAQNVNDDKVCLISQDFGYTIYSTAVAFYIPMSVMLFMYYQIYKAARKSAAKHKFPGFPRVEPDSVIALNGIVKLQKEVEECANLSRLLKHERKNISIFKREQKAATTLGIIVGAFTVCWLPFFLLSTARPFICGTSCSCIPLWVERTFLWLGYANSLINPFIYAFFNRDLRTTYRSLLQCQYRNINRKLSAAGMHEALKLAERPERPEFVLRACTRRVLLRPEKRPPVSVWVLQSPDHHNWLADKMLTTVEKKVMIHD
Sequence of Alpha-2A adrenergic receptor (P22909 whole entry): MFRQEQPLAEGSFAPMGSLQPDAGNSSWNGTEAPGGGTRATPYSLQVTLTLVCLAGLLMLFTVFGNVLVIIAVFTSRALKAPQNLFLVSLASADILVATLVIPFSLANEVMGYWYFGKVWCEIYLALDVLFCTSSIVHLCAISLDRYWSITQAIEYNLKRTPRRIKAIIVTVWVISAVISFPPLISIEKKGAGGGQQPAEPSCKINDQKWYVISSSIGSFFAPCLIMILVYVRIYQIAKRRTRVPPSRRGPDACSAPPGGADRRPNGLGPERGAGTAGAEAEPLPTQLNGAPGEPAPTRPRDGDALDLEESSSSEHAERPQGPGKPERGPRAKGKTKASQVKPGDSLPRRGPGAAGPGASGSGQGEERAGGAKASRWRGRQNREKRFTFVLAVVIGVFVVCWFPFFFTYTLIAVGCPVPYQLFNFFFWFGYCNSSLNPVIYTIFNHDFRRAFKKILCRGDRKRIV

pKi [1]: 7.28
pKi [2]: 6.70
pKi [3]: 9.00
Ki [4]: 6 nM
Activity [5]: 65%
pEC50 [6]: 7.68
half-life [7]: 1 h
bioavailability [8]: 2%
pKi [9]: 7.92
pKi [10]: 7.52
pKi [11]: 6.31
SMILES: COc1ccccc1N1CCN(CCCCNS(=O)(=O)c2ccc(C)cc2)CC1
